From patent publication US10766855B2, “Hydroxamate triterpenoid derivatives” (VIVACELL BIOTECHNOLOGY ESPANA S.L., priority 2016, dated 2020)

Tests used:
3NP-lesioned mice = assay: 3-NP induced Huntington's disease model in mice; format: in vivo, mouse
Experimental: Striatal neurodegeneration was induced in 16-week-old C57BL/6 male mice (Harlan Ibérica, Barcelona, Spain) by six intraperitoneal (i.p.) injections of 3-nitropropionic acid (3NP) (30 mg/kg; one injection each every 12 h prepared in PBS). 3NP-treated animals and the non-lesioned control group (injected with PBS) were used for pharmacological studies with Betulinic acid (30 mg/Kg) and compound VII (30 mg/Kg). Treatments consisted of 5 i.p. injections every 24 h with […] the test compounds or vehicle (10% DMSO plus 6.2% Tween 20 in saline buffer), with the first injection 24 h prior the first 3NP injection and the rest of doses 30 min before the injections of 3NP. Mice were subjected to behavioral tests for determining their neurological status. General locomotor activity, the hindlimb clasping and dystonia, and the truncal dystonia were evaluated. All behavioral tests were conducted prior to drug injections to avoid acute effects of the compounds under investigation. […] were euthanized 12 h after the last injection of 3NP. Once euthanized, animals were dissected and their brains were rapidly removed. The right hemisphere was used to dissect the striatum, which was quickly frozen in RNAlater (Sigma-Aldrich, Germany) to analyzed inflammatory markers were by Real Time PCR. The left hemisphere was fixed in fresh 4% paraformaldehyde (in 0.1M phosphate buffered-saline) for 48 hours at 4° C. and embedded in paraffin wax for histological analysis.
For this test, intoxicated mice with 3-Nitropropionic acid (3-NP) were used for determining microglia activation and astrogliosis including a Control with non-intoxicated mice (3NP, 3NP+BA and 3NP+Compound VII). Iba-1 and glial fibrillary acidic protein (GFAP) expression were determined by immunostaining of brain sections through the different group of mice. Quantification of the different markers was performed with Image J software.
Total RNA was isolated from striata (3NP model) using RNeasy Lipid Tissue Mini Kit (Qiagen, GmbH). The total amount of RNA extracted was quantitated by spectrometry at 260 nm and its purity from the ratio between the absorbance values at 260 and 280 nm. Genomic DNA was removed to eliminate DNA contamination. Single-stranded complementary DNA was synthesized from up to 1 μg of total RNA (pool from at least 3 animals per group) using iScript™ cDNA Synthesis Kit (Bio-Rad, Hercules, Calif., USA). The reaction mixture was kept frozen at −20° C. until enzymatic amplification. The iQ™ SYBR Green Supermix (Bio-Rad) was used to quantify mRNA levels for COX-2, IL-6, IL-1β, and iNOS. […] Expression levels were calculated using the 2^−ΔΔCt method.

HFD mice = assay: High fat diet (HFD) model of diabetes and metabolic pathologies in mice; format: in vivo, mouse; conditions: 30 mg/kg i.p. every 24 h
Experimental: High-fat diet-fed mouse is a widely used model for impaired glucose tolerance (IGT) and type 2 diabetes. Eight-week-old male C57BL/6 mice (Charles River-France) were used for experiments. Mice were maintained under controlled conditions [12 h light/dark cycle; temperature 20° C. (±2° C.) and 40-50% relative humidity] with free access to tap water and standard rodent chow ad libitum. After 1 week of acclimatization, mice were divided into two groups and fed ad libitum with a standard diet—CD- (Code U8220G10R, SAFE Diets, Augy, France) or a High-Fat diet—HFD- (D12451; Research Diets, New Brunswick, N.J.) in order to induce obesity for 15 weeks (diet-induced obesity, DIO). In order to assess the potential beneficial metabolic effects of compound VII in this model of DIO, pharmacological administration of the compound (30 mg/kg body weight) was performed by intraperitoneal (i.p.) injection every 24 h from 12th to 15th week of diet exposure. Control animals received the corresponding vehicle injections (1:1:18 Ethanol:Cremophor:Saline).
To ensure the effectiveness of HFD feeding regimen and assess the efficacy of compounds in terms of amelioration of the metabolic phenotype, body composition analyses of fat and lean masses were performed by QMR (quantitative magnetic resonance) using the EchoMRI™ 700 analyzer (Houston, Tex., software v. 2.0). In this sense, MRI scans were taken in three time points during the experimental period: before starting diet exposure, after 12 week of feeding regimen (coinciding with start of treatment) and at the end of experimental procedures (on the 15th week of diet exposure). Additionally, five days before sacrifice, glucose tolerance test (GTT) was performed in overnight food-deprived mice. To this end, mice were injected intraperitoneally with 2 mg of glucose/g body weight and blood glucose was measured before and 30, 60 and 120 min after injection utilizing an Accu-Chek Advantage® (Roche) glucometer. At the end of the experiment, mice were sacrificed and blood samples were collected using EDTA-coated tubes and plasma stored at −80° C. Plasma triglycerides were measured using and enzymatic colorimetric kit (QCA, Barcelona, Spain).

TGR5 = TGR5 activation in CHO-TGR5-CRE-Luc cells; format: cell-based; conditions: 6 h
Experimental: The CHO-TGR5-CRE-Luc cells stably transfected with the pTGR5 and CRE-Luc. […] As a positive control the cells were treated with 10 μM of LCA (lithocholic acid). Luciferase activity in the cell lysates was measured as indicated above and the EC50 calculated (Table III).

Nrf2 = Nrf2 activation/inhibition in HaCaT-ARE-Luc cells; format: cell-based
HIF-2α = HIF-2α stabilization in hIPCs (Western blot); format: cell-based, human; conditions: increasing concentrations, 3 h
Experimental: Stimulation of human Islet-Derived Precursor Cells (hIPCs) with increasing concentrations of compound VII or with DFX (150 μM) during 3 h, and the expression of HIF-2α, PHD3 and β-actin determined by Western blots.
Since PDH2 and PDH3 also regulate the expression of HIF-2α, the effect of compound VII on HIF-2α stabilization in Human Islet-Derived Precursor Cells (hIPCs) obtained from Innoprot SL (Spain) (reference p10472) was investigated. hIPCs were stimulated with the increasing concentrations of compound VII or with DFX (150 μM) during 3 h. After that, proteins isolation and western blots were performed as in FIG. 3. The antibodies against HIF-2α (ab8365) and PHD3 (ab30782) were from Abcam (Cambrigde, UK), and the antibody anti-β-actin (AC-74) was purchased from Sigma-Aldrich (Saint Louis, Mo., USA). (FIG. 5).

## C=C(C)[C@@H]1CC[C@]2(C(=O)NO)CC[C@]3(C)[C@H](CC[C@@H]4[C@@]5(C)CC[C@H](O)C(C)(C)[C@@H]5CC[C@]43C)[C@@H]12 [Compound VII, (3β) 3-Hydroxy-N-hydroxy-lup-20(29)-en-28-amide]
3NP-lesioned mice; 30 mg/kg, compared with 3NP+Vehicle
  mRNA expression for COX-2, IL-1β, IL-6 and iNOS in striatum: down regulated
3NP-lesioned mice; i.p., 30 mg/kg
  clinical symptoms (behavioral score) induced by 3-NP intoxication: clearly alleviated the clinical symptoms
  reduction in Nissl-stained cells (neuronal death) in striatum caused by 3NP: clearly prevented
3NP-lesioned mice; i.p., immunohistochemistry
  3NP-induced microgliosis (Iba1) and astrogliosis (GFAP): reduced 3NP-induced microgliosis and astrogliosis
HFD mice; 3 weeks
  glucose tolerance (GTT): improved glucose tolerance
  plasma levels of triglycerides: normalize the plasma levels of triglycerides
HFD mice; 12th to 15th week
  adiposity: alleviated
  increase in Fat Mass: alleviated
  weight gain: alleviated weight gain
TGR5
  EC50: > 50 µM
Nrf2
  IC50: > 50 µM
HIF-2α
  HIF-2α expression: stabilized HIF-2α expression
  expression of PHD3: without affecting the expression of PHD3
